In ChEMBL document CHEMBL3593203, “The twin drug approach for novel nicotinic acetylcholine receptor ligands” (Bioorg Med Chem, 2015):

How the values were obtained:
[1] = biological target: T1, Neuronal acetylcholine receptor; alpha4/beta2 (Rattus norvegicus, UniProt P09483+P12390); assay: Displacement of [3H]-epibatidine from Sprague-Dawley rat brain alpha4beta2 nicotine acetylcholine receptor after 90 mins by radioligand displacement assay
[2] = Displacement of Torpedo californica electroplax muscle type (alpha1)2beta1gammadelta nicotine acetylcholine receptor (unknown origin) after 90 mins by radioligand displacement assay; set-up: species or system Tetronarce californica
[3] = biological target: T2, Neuronal acetylcholine receptor subunit alpha-7 (Rattus norvegicus, UniProt Q05941); assay: Displacement of [3H]-MLA from Sprague-Dawley rat brain alpha7 nicotine acetylcholine receptor after 90 mins by radioligand displacement assay
[4] = biological target: T2, Neuronal acetylcholine receptor subunit alpha-7; assay: Displacement of [3H]-MLA from alpha7 nicotine acetylcholine receptor in rat brain minus cerebellum after 60 mins by scintillation counting analysis; assay type: tissue-based
Mus musculus [5] = assay: Antinociceptive activity in ip dosed mouse administered 30 mins prior to testing by hot plate test; assay type: functional
Mus musculus [6] = assay: Antinociceptive activity in sc dosed ICR mouse administered 5 mins prior to testing by tail-flick method; assay type: functional
[7] = biological target: T1, Neuronal acetylcholine receptor; alpha4/beta2; assay: Displacement of [3H]-nicotine from alpha4beta2 nicotine acetylcholine receptor in rat brain membranes after 90 mins by liquid scintillation spectrometric analysis; assay type: cell membranes, Membrane

T2 sequence (Q05941 whole entry): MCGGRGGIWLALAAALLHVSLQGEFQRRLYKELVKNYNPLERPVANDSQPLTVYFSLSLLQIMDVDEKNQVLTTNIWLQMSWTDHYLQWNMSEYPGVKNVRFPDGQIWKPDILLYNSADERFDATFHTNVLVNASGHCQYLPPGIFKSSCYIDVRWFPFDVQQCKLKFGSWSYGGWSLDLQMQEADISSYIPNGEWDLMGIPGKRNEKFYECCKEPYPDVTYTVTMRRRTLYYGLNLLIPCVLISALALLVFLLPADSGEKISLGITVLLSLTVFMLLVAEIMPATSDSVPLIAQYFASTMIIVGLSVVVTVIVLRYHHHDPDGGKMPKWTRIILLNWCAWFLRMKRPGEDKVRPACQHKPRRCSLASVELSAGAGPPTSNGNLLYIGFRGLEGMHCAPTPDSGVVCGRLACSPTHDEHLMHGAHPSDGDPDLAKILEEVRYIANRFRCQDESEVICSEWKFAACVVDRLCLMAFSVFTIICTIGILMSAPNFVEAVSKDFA
T1 sequence (P09483 whole entry): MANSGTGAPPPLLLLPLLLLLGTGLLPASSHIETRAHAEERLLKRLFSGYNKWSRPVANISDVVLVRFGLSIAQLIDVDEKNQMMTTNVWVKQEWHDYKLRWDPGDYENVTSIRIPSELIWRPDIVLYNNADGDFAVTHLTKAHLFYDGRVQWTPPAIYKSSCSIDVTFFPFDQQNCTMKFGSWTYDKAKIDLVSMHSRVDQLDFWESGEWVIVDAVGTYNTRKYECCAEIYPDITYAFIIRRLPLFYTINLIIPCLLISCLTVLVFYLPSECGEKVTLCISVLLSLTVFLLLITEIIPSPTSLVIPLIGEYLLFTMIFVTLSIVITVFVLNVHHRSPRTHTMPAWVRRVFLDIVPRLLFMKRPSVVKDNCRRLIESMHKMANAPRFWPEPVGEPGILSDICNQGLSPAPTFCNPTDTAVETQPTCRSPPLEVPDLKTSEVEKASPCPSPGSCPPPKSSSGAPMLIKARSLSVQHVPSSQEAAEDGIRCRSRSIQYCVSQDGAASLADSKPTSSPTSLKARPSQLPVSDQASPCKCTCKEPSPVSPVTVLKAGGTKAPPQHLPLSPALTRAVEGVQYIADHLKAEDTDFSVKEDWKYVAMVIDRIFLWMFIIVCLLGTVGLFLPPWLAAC
T1 sequence (P12390 whole entry): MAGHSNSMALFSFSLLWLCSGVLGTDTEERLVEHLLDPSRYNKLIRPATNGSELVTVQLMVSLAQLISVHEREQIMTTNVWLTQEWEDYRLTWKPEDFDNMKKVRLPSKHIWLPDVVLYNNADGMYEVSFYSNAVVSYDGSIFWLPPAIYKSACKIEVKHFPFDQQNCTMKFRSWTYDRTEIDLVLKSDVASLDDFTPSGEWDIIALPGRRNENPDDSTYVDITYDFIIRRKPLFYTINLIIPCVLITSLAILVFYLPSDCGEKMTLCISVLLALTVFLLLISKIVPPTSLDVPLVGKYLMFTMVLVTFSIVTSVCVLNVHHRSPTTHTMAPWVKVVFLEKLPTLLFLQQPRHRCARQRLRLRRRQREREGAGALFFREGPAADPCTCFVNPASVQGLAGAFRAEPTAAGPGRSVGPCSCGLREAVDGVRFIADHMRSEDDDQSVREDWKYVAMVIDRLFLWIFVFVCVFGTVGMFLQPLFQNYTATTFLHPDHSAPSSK

Row | Compound | Ki [1] | Ki [3] | other results
1 | CN(C)CCOc1cncc(-c2cncc(OCCN(C)C)c2)c1 | 290 nM | > 1000 nM | Ki [2]: 905 nM
2 | CN(C)CCOc1cc(N2CCN(C)CC2)cc(F)c1F | > 1000 nM |  | 
3 | CCN(CC)CCOc1ccc2c(c1)C(=O)c1cc(OCCN(CC)CC)ccc1-2 [TILORONE] |  |  | Ki [4]: 110 nM
4 | CN(C)CCOc1cncc(N2CCOCC2)c1 | > 1000 nM |  | 
5 | CN(C)CCOc1cncc(N2CCCN(C)CC2)c1 | 212 nM |  | 
6 | CN(C)CCOc1cncc(N2CCCCC2)c1 | > 1000 nM | > 1000 nM | 
7 | CN(C)CCOc1cc(F)cc(N2CCN(C)CC2)c1 | > 1000 nM |  | 
8 | CN(C)CCOc1cc(F)cc(N2CCCNCC2)c1 | > 1000 nM |  | 
9 | CN(C)CCOc1cncc(N2CCCNCC2)c1 | 6.9 nM | > 1000 nM | Ki [2]: > 1000 nM
10 | c1cncc(N2CC3CNCC(C3)C2)c1 |  |  | MED (Mus musculus [5]): 1.9 µmol/kg
11 | CN(C)CCOc1cc(F)cc(N2CCNCC2)c1 | > 1000 nM |  | 
12 | CN(C)CCOc1cc(F)cc(N2CC3CNCC(C3)C2)c1 | 186 nM | > 1000 nM | Ki [2]: > 1000 nM
13 | CN(C)CCOc1cc(F)cc(N2CCCN(C)CC2)c1 | > 1000 nM |  | 
14 | CN(C)CCOc1cc(N2CCCNCC2)cc(F)c1F | > 1000 nM |  | 
15 | CN(C)CCOc1cncc(N2CC3CNCC(C3)C2)c1 | 0.188 nM | > 1000 nM | Ki [2]: > 1000 nM
16 | CN(C)CCOc1cccnc1 |  |  | ED50 (Mus musculus [6]): 15 mg/kg
17 | CN(C)CCOc1cc(N2CCCN(C)CC2)cc(F)c1F | > 1000 nM |  | 
18 | CN(C)CCOc1cc(N2CCNCC2)cc(F)c1F | > 1000 nM |  | 
19 | CN(C)CCOc1cncc(N2CCNCC2)c1 | 145 nM | > 1000 nM | Ki [2]: > 1000 nM
20 | CN1CCCC1c1cncc(C2CCCN2C)c1 (stereo not given) |  |  | Ki [7]: 1180 nM
21 | CN(C)CCOc1cncc(N2CCN(C)CC2)c1 | 66.8 nM | > 1000 nM | Ki [2]: > 1000 nM
22 | CN(C)CCOc1cncc(N2CCC2)c1 | 784 nM | > 1000 nM | 
23 | CN(C)CCOc1cncc(N2CCCC2)c1 | > 1000 nM | > 1000 nM | 
24 | CN(C)CCOc1cncc(N2CCC(O)CC2)c1 | 613 nM | > 1000 nM | 
